Converted amounts (≈) assume the structure as drawn.
Columns and labels:
Type in all cases: functional
Bacillus subtilis [1] = assay: Antimicrobial activity against Bacillus subtilis MTCC 430 assessed as growth inhibition after 24 hr by agar streak dilution technique; details: MTCC 430, 24 h
Bacillus subtilis [2] = assay: Antimicrobial activity against Bacillus subtilis MTCC 430 assessed as diameter of growth inhibition zone after 24 hr by paper disk diffusion technique
Staphylococcus aureus [3] = assay: Antimicrobial activity against Staphylococcus aureus MTCC 96 assessed as growth inhibition after 24 hr by agar streak dilution technique; details: MTCC 96, 24 h
Aspergillus niger [4] = assay: Antimicrobial activity against Aspergillus niger MTCC 282 assessed as diameter of growth inhibition zone after 24 hr by paper disk diffusion technique
Candida albicans [5] = assay: Antimicrobial activity against Candida albicans MTCC 183 assessed as growth inhibition after 48 hr by agar streak dilution technique; details: MTCC 183, 48 h
Escherichia coli [6] = assay: Antimicrobial activity against Escherichia coli MTCC 739 assessed as diameter of growth inhibition zone after 24 hr by paper disk diffusion technique
Pseudomonas aeruginosa [7] = assay: Antimicrobial activity against Pseudomonas aeruginosa MTCC 741 assessed as growth inhibition after 24 hr by agar streak dilution technique; details: MTCC 741, 24 h
Staphylococcus aureus [8] = assay: Antimicrobial activity against Staphylococcus aureus MTCC 96 assessed as diameter of growth inhibition zone after 24 hr by paper disk diffusion technique
Escherichia coli [9] = assay: Antimicrobial activity against Escherichia coli MTCC 739 assessed as growth inhibition after 24 hr by agar streak dilution technique; details: MTCC 739, 24 h
Candida albicans [10] = assay: Antimicrobial activity against Candida albicans MTCC 183 assessed as diameter of growth inhibition zone after 24 hr by paper disk diffusion technique
Pseudomonas aeruginosa [11] = assay: Antimicrobial activity against Pseudomonas aeruginosa MTCC 741 assessed as diameter of growth inhibition zone after 24 hr by paper disk diffusion technique
[12] = system: Mycobacterium tuberculosis; assay: Antituberculosis activity against Mycobacterium tuberculosis H37Rv assessed as growth inhibition after 12 to 28 days by L-J MIC method; details: for MIC: Mycobacterium tuberculosis, H37Rv
Aspergillus niger [13] = assay: Antimicrobial activity against Aspergillus niger MTCC 282 assessed as growth inhibition after 48 hr by agar streak dilution technique; details: MTCC 282, 48 h

| SMILES | MIC (Bacillus subtilis [1]) | diameter of the inhibition zone (DIZ) (Bacillus subtilis [2]) | MIC (Staphylococcus aureus [3]) | diameter of the inhibition zone (DIZ) (Aspergillus niger [4]) | MIC (Candida albicans [5]) | diameter of the inhibition zone (DIZ) (Escherichia coli [6]) | MIC (Pseudomonas aeruginosa [7]) | diameter of the inhibition zone (DIZ) (Staphylococcus aureus [8]) | MIC (Escherichia coli [9]) | diameter of the inhibition zone (DIZ) (Candida albicans [10]) | diameter of the inhibition zone (DIZ) (Pseudomonas aeruginosa [11]) | growth inhibition (GI) [12] | MIC [12] | MIC (Aspergillus niger [13]) |
| --- | --- | --- | --- | --- | --- | --- | --- | --- | --- | --- | --- | --- | --- | --- |
| O=C1CSC(c2cc3ccccc3nc2Cl)N1c1ccccc1Cl (stereo not drawn) | 12.5 µg/mL (≈ 33.3 µM) | 23 mm | 50 µg/mL (≈ 133 µM) | 20 mm | 62.5 µg/mL (≈ 167 µM) | 21 mm | 25 µg/mL (≈ 66.6 µM) | 21 mm | 62.5 µg/mL (≈ 167 µM) | 21 mm | 21 mm | 95% | 100 µg/mL (≈ 266 µM) | 62.5 µg/mL (≈ 167 µM) |
| O=C1C(Cl)C(c2cc3ccccc3nc2Cl)N1c1ccccc1Cl (stereo not drawn) | 12.5 µg/mL (≈ 33.1 µM) | 24 mm | 62.5 µg/mL (≈ 165 µM) | 19 mm | 100 µg/mL (≈ 265 µM) | 21 mm | 50 µg/mL (≈ 132 µM) | 24 mm | 62.5 µg/mL (≈ 165 µM) | 18 mm | 20 mm | 97% | 62.5 µg/mL (≈ 165 µM) | 100 µg/mL (≈ 265 µM) |
| Cc1cnc(N2C(=O)CSC2c2cc3ccccc3nc2Cl)s1 (stereo not drawn) | 50 µg/mL (≈ 138 µM) | 23 mm | 50 µg/mL (≈ 138 µM) | 24 mm | 100 µg/mL (≈ 276 µM) | 24 mm | 50 µg/mL (≈ 138 µM) | 24 mm | 25 µg/mL (≈ 69.1 µM) | 23 mm | 22 mm | 98% | 25 µg/mL (≈ 69.1 µM) | 62.5 µg/mL (≈ 173 µM) |
| O=C1C(Cl)C(c2cc3ccccc3nc2Cl)N1c1ccc([N+](=O)[O-])cc1 (stereo not drawn) | 50 µg/mL (≈ 129 µM) | 23 mm | 12.5 µg/mL (≈ 32.2 µM) | 24 mm | 100 µg/mL (≈ 258 µM) | 20 mm | 12.5 µg/mL (≈ 32.2 µM) | 25 mm | 100 µg/mL (≈ 258 µM) | 19 mm | 23 mm | 96% | 50 µg/mL (≈ 129 µM) | 50 µg/mL (≈ 129 µM) |
| Cc1ccc(N2C(=O)CSC2c2cc3ccccc3nc2Cl)cc1 (stereo not drawn) | 100 µg/mL (≈ 282 µM) | 19 mm | 100 µg/mL (≈ 282 µM) | <10 mm | 100 µg/mL (≈ 282 µM) | 17 mm | 62.5 µg/mL (≈ 176 µM) | 19 mm | 100 µg/mL (≈ 282 µM) | 17 mm | 20 mm | 94% | 250 µg/mL (≈ 704 µM) | 100 µg/mL (≈ 282 µM) |
| Cc1cccc(N2C(=O)CSC2c2cc3ccccc3nc2Cl)c1 (stereo not drawn) | 100 µg/mL (≈ 282 µM) | 17 mm | 100 µg/mL (≈ 282 µM) | 19 mm | 100 µg/mL (≈ 282 µM) | <10 mm | 100 µg/mL (≈ 282 µM) | 18 mm | 100 µg/mL (≈ 282 µM) | 13 mm | 16 mm | 90% | 500 µg/mL (≈ 1410 µM) | 100 µg/mL (≈ 282 µM) |
| O=C1CSC(c2cc3ccccc3nc2Cl)N1c1ccccc1[N+](=O)[O-] (stereo not drawn) | 62.5 µg/mL (≈ 162 µM) | 21 mm | 25 µg/mL (≈ 64.8 µM) | 22 mm | 100 µg/mL (≈ 259 µM) | 24 mm | 12.5 µg/mL (≈ 32.4 µM) | 25 mm | 12.5 µg/mL (≈ 32.4 µM) | 20 mm | 25 mm | 93% | 200 µg/mL (≈ 518 µM) | 50 µg/mL (≈ 130 µM) |
| O=C1CSC(c2cc3ccccc3nc2Cl)N1c1cccc(Cl)c1 (stereo not drawn) | 12.5 µg/mL (≈ 33.3 µM) | 24 mm | 25 µg/mL (≈ 66.6 µM) | 24 mm | 100 µg/mL (≈ 266 µM) | 22 mm | 25 µg/mL (≈ 66.6 µM) | 26 mm | 62.5 µg/mL (≈ 167 µM) | 20 mm | 23 mm | 97% | 50 µg/mL (≈ 133 µM) | 50 µg/mL (≈ 133 µM) |
| O=C1C(Cl)C(c2cc3ccccc3nc2Cl)N1c1cccc(Cl)c1 (stereo not drawn) | 12.5 µg/mL (≈ 33.1 µM) | 23 mm | 25 µg/mL (≈ 66.2 µM) | 25 mm | 62.5 µg/mL (≈ 165 µM) | 21 mm | 25 µg/mL (≈ 66.2 µM) | 25 mm | 62.5 µg/mL (≈ 165 µM) | 20 mm | 22 mm | 98% | 50 µg/mL (≈ 132 µM) | 62.5 µg/mL (≈ 165 µM) |
| O=C1CSC(c2cc3ccccc3nc2Cl)N1c1ccc([N+](=O)[O-])cc1 (stereo not drawn) | 50 µg/mL (≈ 130 µM) | 23 mm | 12.5 µg/mL (≈ 32.4 µM) | 24 mm | 25 µg/mL (≈ 64.8 µM) | 21 mm | 12.5 µg/mL (≈ 32.4 µM) | 26 mm | 62.5 µg/mL (≈ 162 µM) | 24 mm | 25 mm | 97% | 50 µg/mL (≈ 130 µM) | 12.5 µg/mL (≈ 32.4 µM) |
| Cc1ccc(N2C(=O)C(Cl)C2c2cc3ccccc3nc2Cl)cc1 (stereo not drawn) | 100 µg/mL (≈ 280 µM) | 16 mm | 100 µg/mL (≈ 280 µM) | <10 mm | 100 µg/mL (≈ 280 µM) | 15 mm | 100 µg/mL (≈ 280 µM) | 17 mm | 100 µg/mL (≈ 280 µM) | 19 mm | 13 mm | 94% | 200 µg/mL (≈ 560 µM) | 100 µg/mL (≈ 280 µM) |
| O=C1C(Cl)C(c2cc3ccccc3nc2Cl)N1c1ccc(F)cc1 (stereo not drawn) | 25 µg/mL (≈ 69.2 µM) | 23 mm | 25 µg/mL (≈ 69.2 µM) | 26 mm | 50 µg/mL (≈ 138 µM) | 23 mm | 50 µg/mL (≈ 138 µM) | 23 mm | 25 µg/mL (≈ 69.2 µM) | 24 mm | 22 mm | 98% | 25 µg/mL (≈ 69.2 µM) | 25 µg/mL (≈ 69.2 µM) |

From ChEMBL document CHEMBL3045012, “Quinoline-based azetidinone and thiazolidinone analogues as antimicrobial and antituberculosis agents” (2013)
